Laboratory results as given in patent US6747016B1, “Substituted purine derivatives as inhibitors of cell adhesion” (Aventis Pharma Deutschland GmbH, priority 1999, dated 2004).

Tests used:
[1] = target: 293 cells cotransfected with αv and β3 subunits of the vitronectin receptor αvβ3, binding to human vitronectin (Homo sapiens, UniProt P05106+P06756); assay: Vitronectin/293 cell test (Vn/293 cell test); assay type: cell-based; details: inhibition of binding of 293 cells to human vitronectin
Protocol: 2) Vitronectin/293 Cell Test
In this test the inhibition of binding of 293 cells to human vitronectin (Vn) by the compounds of the invention is determined (the test method is abbreviated as Vn/293 cell test in the listing of the test results).
Purification of Human Vitronectin
Human vitronectin was isolated from human plasma and purified by affinity chromatography according to the method of Yatohgo et al., Cell Structure and Function 23 (1988) 281.
293 cells, a human embryonic kidney cell line, which were cotransfected with DNA sequences for the αv and β3 subunits of the vitronectin receptor αvβ3, were selected for a high rate of expression (>500,000 αvβ3 receptors/cell) according to the FACS method. The selected cells were cultured and sorted again by means of FACS in order to obtain a stable cell line (15 D) with expression rates>1,000,000 copies of αvβ3 per cell.
A Linbro 96-well tissue culture plate with a flat bottom was coated overnight at 4° C. with human vitronectin (0.01 mg/ml, 0.05 ml/well) in phosphate-buffered saline solution (PBS) and then blocked with 0.5% strength BSA (bovine serum albumin). Solutions of the test substances from 10^−10 mol/l to 2×10^−3 mol/l in glucose-containing DMEM medium were prepared and 0.05 ml/well of the solution were added to the plate in each case. The cells which expressed high levels of αvβ3 (for example 15 D) were suspended in glucose-containing DMEM medium and the suspension was adjusted to a content of 25,000 cells/0.05 ml of medium. 0.05 ml of this cell suspension was added to each well and the plate was incubated at 37° C. for 90 min. The plate was washed 3 times with warm PBS in order to remove unbound cells. The bound cells were lyzed in citrate buffer (25 mM, pH 5.0) which contained 0.25% Triton X-100. The hexoseamidase substrate p-nitrophenyl-N-acetyl-β-D-glucosaminide was then added and the plate was incubated at 37° C. for 90 min. The reaction was stopped with a glycine (50 mM)/EDTA (5 mM) buffer (pH 10.4) and the absorption of each well was measured at 405 to 650 nm. The data were analyzed according to standard methods.

[2] = system: bone resorption by osteoclasts; assay: Pit Assay (osteoclast resorption test); assay type: cell-based; details: inhibition of bone resorption
Description: The inhibition of bone resorption by the compounds of the invention can be determined, for example, with the aid of an osteoclast resorption test (“Pit Assay”), for example analogously to WO-A-95/32710 which is incorporated herein by reference.

[3] = target: human vitronectin receptor αvβ3 (Homo sapiens, UniProt P05106+P06756); assay: Kistrin binding assay (K/VnR, αvβ3 ELISA test); details: inhibition of binding of kistrin to human vitronectin receptor
Sequence of human vitronectin receptor αvβ3 (P06756 31-889 limits assumed): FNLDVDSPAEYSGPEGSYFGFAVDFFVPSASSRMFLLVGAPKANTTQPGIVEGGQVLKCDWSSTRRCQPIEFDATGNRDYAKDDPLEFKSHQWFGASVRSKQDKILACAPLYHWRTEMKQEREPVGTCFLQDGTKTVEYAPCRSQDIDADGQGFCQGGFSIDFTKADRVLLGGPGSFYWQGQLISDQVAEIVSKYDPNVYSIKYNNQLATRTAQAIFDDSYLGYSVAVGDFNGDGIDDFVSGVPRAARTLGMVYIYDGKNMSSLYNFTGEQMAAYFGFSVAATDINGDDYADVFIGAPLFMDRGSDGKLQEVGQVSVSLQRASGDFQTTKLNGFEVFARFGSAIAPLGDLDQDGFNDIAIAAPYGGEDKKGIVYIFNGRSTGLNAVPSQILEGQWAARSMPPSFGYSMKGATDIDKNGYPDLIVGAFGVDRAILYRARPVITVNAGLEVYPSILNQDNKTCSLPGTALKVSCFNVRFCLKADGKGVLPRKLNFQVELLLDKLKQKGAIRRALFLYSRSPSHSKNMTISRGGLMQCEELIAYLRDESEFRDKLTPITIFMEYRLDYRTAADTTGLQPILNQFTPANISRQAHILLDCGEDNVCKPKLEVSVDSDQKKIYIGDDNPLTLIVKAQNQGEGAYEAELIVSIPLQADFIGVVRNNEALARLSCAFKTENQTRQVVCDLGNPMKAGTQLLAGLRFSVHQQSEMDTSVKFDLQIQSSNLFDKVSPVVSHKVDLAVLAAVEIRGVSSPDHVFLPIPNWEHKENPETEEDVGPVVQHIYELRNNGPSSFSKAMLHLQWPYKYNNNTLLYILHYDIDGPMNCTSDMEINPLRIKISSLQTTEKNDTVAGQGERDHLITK
Sequence of human vitronectin receptor αvβ3 (P06756 891-1048 limits assumed): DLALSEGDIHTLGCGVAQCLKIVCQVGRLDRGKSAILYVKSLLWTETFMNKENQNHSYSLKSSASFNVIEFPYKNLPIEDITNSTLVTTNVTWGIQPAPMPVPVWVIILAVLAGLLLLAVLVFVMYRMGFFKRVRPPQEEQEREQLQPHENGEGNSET
Sequence of human vitronectin receptor αvβ3 (P05106 27-788): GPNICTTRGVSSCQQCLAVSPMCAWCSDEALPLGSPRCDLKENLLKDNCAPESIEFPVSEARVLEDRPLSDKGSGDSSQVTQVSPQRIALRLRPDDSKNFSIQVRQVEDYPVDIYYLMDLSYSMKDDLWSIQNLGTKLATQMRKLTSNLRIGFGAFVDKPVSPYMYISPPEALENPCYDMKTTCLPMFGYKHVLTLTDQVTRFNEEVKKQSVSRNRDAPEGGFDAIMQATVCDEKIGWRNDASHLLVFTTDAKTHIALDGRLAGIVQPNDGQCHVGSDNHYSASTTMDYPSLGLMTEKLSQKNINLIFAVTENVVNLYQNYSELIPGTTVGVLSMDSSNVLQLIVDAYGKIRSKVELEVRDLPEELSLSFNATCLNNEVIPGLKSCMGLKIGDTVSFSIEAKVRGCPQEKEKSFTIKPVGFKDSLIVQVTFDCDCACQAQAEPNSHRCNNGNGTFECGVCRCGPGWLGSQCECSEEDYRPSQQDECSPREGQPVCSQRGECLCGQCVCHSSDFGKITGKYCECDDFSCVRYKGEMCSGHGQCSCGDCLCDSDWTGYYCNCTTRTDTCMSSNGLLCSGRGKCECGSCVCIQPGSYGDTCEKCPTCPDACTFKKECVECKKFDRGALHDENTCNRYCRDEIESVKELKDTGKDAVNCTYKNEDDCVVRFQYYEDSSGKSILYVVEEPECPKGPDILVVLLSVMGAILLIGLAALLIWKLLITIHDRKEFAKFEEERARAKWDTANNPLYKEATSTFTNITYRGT
Description: The inhibition of the binding of kistrin to human vitronectin receptor (VnR) described below is a test method by which the antagonistic action of the compounds of the invention on the vitronectin receptor αvβ3 can be determined (αvβ3 ELISA Test; the test method is abbreviated as “K/VnR” in the listing of the test results).
Kistrin is purified according to the methods of Dennis et al., as described in Proc. Natl. Acad. Sci. USA 87 (1989) 2471 and Proteins: Structure, Function and Genetics 15 (1993) 312.
Purification of Human Vitronectin Receptor (αvβ3)
144 (1987) 475. Human vitronectin receptor αvβ3 can also be obtained from some cell lines (for example from 293 cells, a human embryonic kidney cell line) which are co-transfected with DNA sequences for both subunits αv and β3 of the vitronectin receptor. The subunits are extracted with octyl glycoside and then chromatographed through concanavalin A, heparin-Sepharose and S-300.
Murine monoclonal antibodies which are specific for the β3 subunits of the vitronectin receptor, are prepared according to the method of Newman et al., Blood, 1985, 227, or by a similar process. The rabbit Fab 2 anti-mouse Fc conjugate to horseradish peroxidase (anti-mouse Fc HRP) was obtained from Pel Freeze (Catalog No. 715 305-1).
The ability of substances to inhibit the binding of kistrin to the vitronectin receptor can be determined using an ELISA test. For this purpose, Nunc 96-well microtiter plates are coated with a solution of kistrin (0.002 mg/ml) according to the method of Dennis et al., as described in Proteins: Structure, Function and Genetics 15 (1993) 312. The plates are then washed twice with PBS/0.05% Tween-20 and blocked by incubating (60 min) with bovine serum albumin (BSA, 0.5%, RIA grade or better) in buffer solution (Tris-HCl (50 mM), NaCl (100 mM), MgCl2 (1 mM), CaCl2 (1 mM), MnCl2 (1 mM), pH 7). Solutions of known inhibitors and of the test substances are prepared in concentrations from 2×10^−12 to 2×10^−6 mol/l in assay buffer (BSA (0.5%, RIA grade or better); Tris-HCl (50 mM), NaCl (100 mM), MgCl2 (1 mM), CaCl2 (1 mM), MnCl2 (1 mM), pH 7). The blocked plates are emptied, and in each case 0.025 ml of this solution which contains a defined concentration (2×10^−12 to 2×10^−6 mol/l) either of a known inhibitor or of a test substance, are added to each well. 0.025 ml of a solution of the vitronectin receptor in assay buffer (0.03 mg/ml) is pipetted into each well of the plate and the plate is incubated at room temperature for 60-180 min on a shaker. In the meantime, a solution (6 ml/plate) of a murine monoclonal antibody specific for the β3 subunit of the vitronectin receptor is prepared in assay buffer (0.0015 mg/ml). A second rabbit antibody (0.001 ml of stock solution/6 ml of the murine monoclonal anti-β3 antibody solution) which is an anti-mouse Fc HRP antibody conjugate is added to this solution, and this mixture of murine anti-β3 antibody and rabbit anti-mouse Fc HRP antibody conjugate is incubated during the time of the receptor-inhibitor incubation. The test plates are washed four times with PBS solution which contains 0.05% Tween-20, and in each case 0.05 ml/well of the antibody mixture is pipetted into each well of the plate and incubated for 60-180 min. The plate is washed four times with PBS/0.05% Tween-20 and then developed with 0.05 ml/well of a PBS solution which contains 0.67 mg/ml of o-phenylenediamine and 0.012% of H2O2. Alternatively to this, o-phenylenediamine can be employed in a buffer (pH 5) which contains Na3PO4 and citric acid. The color development is stopped using 1 N H2SO4 (0.05 ml/well). The absorption for each well is measured at 492-405 nm and the data are evaluated by standard methods.

Sequence of 293 cells cotransfected with αv and β3 subunits of the vitronectin receptor αvβ3, binding to human vitronectin (P05106 whole entry): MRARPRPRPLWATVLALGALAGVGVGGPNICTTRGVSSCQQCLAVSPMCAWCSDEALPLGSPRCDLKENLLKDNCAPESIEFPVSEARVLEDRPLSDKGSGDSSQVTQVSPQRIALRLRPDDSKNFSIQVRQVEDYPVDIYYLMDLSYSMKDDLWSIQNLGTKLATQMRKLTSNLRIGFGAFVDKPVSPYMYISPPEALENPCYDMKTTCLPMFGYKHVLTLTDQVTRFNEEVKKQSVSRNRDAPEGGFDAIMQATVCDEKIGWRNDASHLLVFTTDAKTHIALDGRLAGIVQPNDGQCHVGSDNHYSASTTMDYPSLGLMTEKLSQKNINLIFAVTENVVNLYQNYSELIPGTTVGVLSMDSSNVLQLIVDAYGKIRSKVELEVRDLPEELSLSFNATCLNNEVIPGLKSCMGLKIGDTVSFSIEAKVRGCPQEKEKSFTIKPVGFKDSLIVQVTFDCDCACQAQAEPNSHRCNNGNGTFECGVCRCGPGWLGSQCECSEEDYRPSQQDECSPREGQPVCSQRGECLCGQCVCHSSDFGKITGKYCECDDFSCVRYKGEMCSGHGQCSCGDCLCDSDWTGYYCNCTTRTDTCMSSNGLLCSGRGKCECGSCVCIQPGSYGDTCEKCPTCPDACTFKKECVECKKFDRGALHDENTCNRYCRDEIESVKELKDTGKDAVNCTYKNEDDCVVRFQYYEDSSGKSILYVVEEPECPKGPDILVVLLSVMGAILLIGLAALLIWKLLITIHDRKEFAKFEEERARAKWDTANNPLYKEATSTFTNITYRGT
Sequence of 293 cells cotransfected with αv and β3 subunits of the vitronectin receptor αvβ3, binding to human vitronectin (P06756 whole entry): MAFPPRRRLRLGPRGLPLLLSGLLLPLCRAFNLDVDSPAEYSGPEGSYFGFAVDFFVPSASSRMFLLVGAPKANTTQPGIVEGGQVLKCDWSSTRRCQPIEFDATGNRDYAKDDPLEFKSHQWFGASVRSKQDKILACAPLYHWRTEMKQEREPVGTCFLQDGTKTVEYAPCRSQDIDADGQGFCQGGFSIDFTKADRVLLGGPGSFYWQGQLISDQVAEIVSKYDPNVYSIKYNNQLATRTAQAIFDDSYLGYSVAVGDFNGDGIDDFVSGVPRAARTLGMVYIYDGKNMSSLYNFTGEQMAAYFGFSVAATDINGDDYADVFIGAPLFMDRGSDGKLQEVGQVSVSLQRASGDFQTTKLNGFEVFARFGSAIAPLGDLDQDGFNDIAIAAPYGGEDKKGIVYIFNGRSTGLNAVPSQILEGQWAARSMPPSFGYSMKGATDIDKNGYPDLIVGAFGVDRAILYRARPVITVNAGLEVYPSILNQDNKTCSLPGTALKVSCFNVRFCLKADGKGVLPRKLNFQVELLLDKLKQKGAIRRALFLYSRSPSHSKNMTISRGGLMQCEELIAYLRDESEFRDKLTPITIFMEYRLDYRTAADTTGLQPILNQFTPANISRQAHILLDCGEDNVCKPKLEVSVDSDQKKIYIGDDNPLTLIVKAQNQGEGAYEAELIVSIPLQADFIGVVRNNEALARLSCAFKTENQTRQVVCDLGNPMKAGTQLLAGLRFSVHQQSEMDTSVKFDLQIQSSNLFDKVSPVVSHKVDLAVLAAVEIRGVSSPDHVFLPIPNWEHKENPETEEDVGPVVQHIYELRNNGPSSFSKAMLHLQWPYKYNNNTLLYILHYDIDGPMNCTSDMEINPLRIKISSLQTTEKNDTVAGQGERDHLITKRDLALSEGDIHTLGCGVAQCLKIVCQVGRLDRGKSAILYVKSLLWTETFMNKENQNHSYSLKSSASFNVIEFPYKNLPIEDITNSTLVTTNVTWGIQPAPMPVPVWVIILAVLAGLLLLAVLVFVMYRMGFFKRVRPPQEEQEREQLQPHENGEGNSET

Row | IC50 [1] | IC50 [2] | IC50 [3] | SMILES
1 | 30 nM | 0.8 nM | 1.9 nM | O=C(NC1=NCCCN1)C1CCN(c2ncnc3c2ncn3C[C@H](NS(=O)(=O)c2cccc3ccccc23)C(=O)O)CC1 [Example 1, (2S)-2-(Naphthalene-1-sulfonylamino)-3-(6-(4-(1 ,4,5,6-tetrahydropyrimidin-2-ylcarbamoyl)-piperidin-1-yl)-purin-9-yl)-propionic acid]
2 | 9 nM | 2.3 nM | 2.5 nM | O=C(NC1=NCCCN1)C1CCN(c2ncnc3c2ncn3C[C@H](NS(=O)(=O)c2ccc3ccccc3c2)C(=O)O)CC1 [Example 2, (2S)-2-(Naphthalene-2-sulfonylamino)-3-(6-(4-(1,4,5,6-tetrahydropyrimidin-2-ylcarbamoyl)-piperidin-1-yl)-purin-9-yl)-propionic acid]
3 | 67 nM | – | 4.5 nM | CC(C)(C)c1ccc(S(=O)(=O)N[C@@H](Cn2cnc3c(N4CCC(C(=O)NC5=NCCCN5)CC4)ncnc32)C(=O)O)cc1 [Example 3, (2S)-2-(4-tert-Butyl-benzenesulfonylamino)-3-(6-(4-(1,4,5,6-tetrahydropyrimidin-2-ylcarbamoyl)-piperidin-1-yl)-purin-9-yl)-propionic acid]
4 | 1400 nM | – | 25 nM | CCCS(=O)(=O)N[C@@H](Cn1cnc2c(N3CCC(C(=O)NC4=NCCCN4)CC3)ncnc21)C(=O)O [Example 4, (2S)-2-(Propane-1-sulfonylamino)-3-(6-(4-(1,4,5,6-tetrahydropyrimidin-2-ylcarbamoyl)-piperidin-1-yl)-purin-9-yl)-propionic acid]
5 | 28 nM | 15 nM | 3.2 nM | O=C(NC1=NCCCN1)C1CCN(c2ncnc3c2ncn3C[C@H](NS(=O)(=O)c2ccc(C(F)(F)F)cc2)C(=O)O)CC1 [Example 5, (2S)-3-(6-(4-(1,4,5,6-Tetrahydropyrimidin-2-ylcarbamoyl)-piperidin-1-yl)-purin-9-yl)-2-(4-trifluoromethyl-benzenesulfonylamino)-propionic acid]
6 | 42 nM | – | 3.4 nM | O=C(NC1=NCCCN1)C1CCN(c2ncnc3c2ncn3C[C@H](NS(=O)(=O)c2cccc(C(F)(F)F)c2)C(=O)O)CC1 [Example 6, (2S)-3-(6-(4-(1,4,5,6-Tetrahydropyrimidin-2-ylcarbamoyl)-piperidin-1-yl)-purin-9-yl)-2-(3-trifluoromethyl-benzenesulfonylamino)-propionic acid]
7 | 500 nM | – | 23 nM | O=C(NC1=NCCCN1)C1CCN(c2ncnc3c2ncn3C[C@H](NS(=O)(=O)Cc2ccccc2)C(=O)O)CC1 [Example 7, (2S)-2-Phenylmethanesulfonylamino-3-(6-(4-(1,4,5,6-tetrahydropyrimidin-2-ylcarbamoyl)-piperidin-1-yl)-purin-9-yl)-propionic acid]
8 | – | – | 85 nM | O=C(NC1=NCCCN1)C1CCN(c2ncnc3c2ncn3C[C@H](NS(=O)(=O)C(F)(F)F)C(=O)O)CC1 [Example 8, (2S)-3-(6-(4-(1,4,5,6-Tetrahydropyrimidin-2-ylcarbamoyl)-piperidin-1-yl)-purin-9-yl)-2-trifluoromethanesulfonylamino-propionic acid]
9 | 2500 nM | – | 38 nM | O=C(NC1=NCCCN1)C1CCN(c2ncnc3c2ncn3C[C@H](NS(=O)(=O)CC(F)(F)F)C(=O)O)CC1 [Example 9, (2S)-3-(6-(4-(1,4,5,6-Tetrahydropyrimidin-2-ylcarbamoyl)-piperidin-1-yl)-purin-9-yl)-2-(2,2,2-trifluoro-ethanesulfonylamino)-propionic acid]
10 | 1120 nM | – | 4.2 nM | CC(C)CS(=O)(=O)N[C@@H](Cn1cnc2c(N3CCC(C(=O)NC4=NCCCN4)CC3)ncnc21)C(=O)O [Example 10, (2S)-2-(2-Methylpropane-1-sulfonylamino)-3-(6-(4-(1,4,5,6-tetrahydropyrimidin-2-ylcarbamoyl)-piperidin-1-yl)-purin-9-yl)-propionic acid]
11 | 87 nM | – | 6.5 nM | Cc1ccc(S(=O)(=O)N[C@@H](Cn2cnc3c(N4CCC(C(=O)NC5=NCCCN5)CC4)ncnc32)C(=O)O)cc1 [Example 11, (2S)-3-(6-(4-(1,4,5,6-Tetrahydropyrimidin-2-ylcarbamoyl)-piperidin-1-yl)-purin-9-yl)-2-(toluene-4-sulfonylamino)-propionic acid]
12 | 38 nM | 26 nM | 5 nM | Cc1cc(C)c(S(=O)(=O)N[C@@H](Cn2cnc3c(N4CCC(C(=O)NC5=NCCCN5)CC4)ncnc32)C(=O)O)c(C)c1 [Example 12, (2S)-3-(6-(4-(1,4,5,6-Tetrahydropyrimidin-2-ylcarbamoyl)-piperidin-1-yl)-purin-9-yl)-2-(2,4,6-trimethyl-benzenesulfonylamino)-propionic acid]
